# In patent US20200138854A1, “Method of Detecting and Quantifying Bile Acid from Saliva” (Ironwood Pharmaceuticals, Inc., priority 2017, published 2020):
# “And” between values parts separate entries of the source, which are not always exact repeats. Identical values can stand only once.
# Experiments:
# [1] = Frozen (−20° C.) short-term stability in cholestyramine-treated human saliva; settings: for % Bias QC-LLOQ / % CV QC-LLOQ / Concentration QC-LLOQ / Mean concentration QC-LLOQ: nominal 0.500 ng/mL; for Concentration QC-LLOQ / Concentration QC-Mid / Concentration QC-High: Run 33, cholestyramine-treated human saliva, replicate; for Mean concentration QC-LLOQ / Mean concentration QC-Mid / Mean concentration QC-High: n 4; for % Bias QC-Mid / % CV QC-Mid / Concentration QC-Mid / Mean concentration QC-Mid: nominal 8.00 ng/mL; for % Bias QC-High / % CV QC-High / Concentration QC-High / Mean concentration QC-High: nominal 80.0 ng/mL
# Description: Quality control samples for the evaluation of accuracy and precision and for run acceptance were prepared on the day of sample extraction. QC samples prepared in cholestyramine-treated saliva are to be prepared in small volumes for analysis. Stability for these QC samples would be limited to short-term storage (i.e., 2 days) whereas untreated human saliva would be evaluated for long-term storage.
# For stability in cholestyramine-treated human saliva, samples were prepared by spiking cholestyramine-treated human saliva with each analyte at the QC-LLOQ, QC-Low, QC-Mid and QC-High levels. The samples were stored in a −20° C. freezer. After 1 day and 2 days of storage, each sample was extracted in replicates of four for analysis.
# [2] = Long-term (1 month at −20° C. and −80° C.) stability in untreated human saliva; settings: nominal 80.0 ng/mL; for Fresh QCs (Batch 34) Mean at Time Zero, QC-High / Concentration QC-High: untreated human saliva; for % Bias QC-High / % CV QC-High / Difference from Fresh (%) QC-High / Mean concentration QC-High / Concentration QC-High: 1 month; for Mean concentration QC-High: n 3; for Concentration QC-High: Run 35, replicate
structure (smiles),measurement,setting,value
"C[C@H](CCC(=O)NCCS(=O)(=O)O)[C@H]1CC[C@H]2[C@@H]3[C@H](O)C[C@@H]4C[C@H](O)CC[C@]4(C)[C@H]3CC[C@]12C [Taurochenodeoxycholic Acid, Taurochenodeoxycholic acid]",Short-term stability in cholestyramine-treated human saliva,[1],up to 2 days
same,Stability in Treated Human Saliva,[1],2 days
same,% Bias QC-LLOQ,[1]; 1 Day at −20° C.,7.1%
same,% CV QC-LLOQ,[1]; 1 Day at −20° C.,2.2%
same,Concentration QC-LLOQ,[1]; 1 Day at −20° C.,0.529 ng/mL and 0.542 ng/mL and 0.522 ng/mL and 0.548 ng/mL
same,Mean concentration QC-LLOQ,[1]; 1 Day at −20° C.,0.535 ng/mL
same,% Bias QC-LLOQ,[1]; 2 Days at −20° C.,19.6%
same,% CV QC-LLOQ,[1]; 2 Days at −20° C.,4.1%
same,Concentration QC-LLOQ,[1]; 2 Days at −20° C.,0.608 ng/mL and 0.589 ng/mL and 0.569 ng/mL and 0.626 ng/mL
same,Mean concentration QC-LLOQ,[1]; 2 Days at −20° C.,0.598 ng/mL
same,% Bias QC-Mid,[1]; 1 Day at −20° C.,−5.4%
same,% CV QC-Mid,[1]; 1 Day at −20° C.,0.9%
same,Concentration QC-Mid,[1]; 1 Day at −20° C.,7.59 ng/mL and 7.63 ng/mL and 7.58 ng/mL and 7.47 ng/mL
same,Mean concentration QC-Mid,[1]; 1 Day at −20° C.,7.57 ng/mL
same,% Bias QC-Mid,[1]; 2 Days at −20° C.,−1.8%
same,% CV QC-Mid,[1]; 2 Days at −20° C.,4.0%
same,Concentration QC-Mid,[1]; 2 Days at −20° C.,7.42 ng/mL and 8.04 ng/mL and 8.12 ng/mL and 7.83 ng/mL
same,Mean concentration QC-Mid,[1]; 2 Days at −20° C.,7.85 ng/mL
same,% Bias QC-High,[1]; 1 Day at −20° C.,−3.3%
same,% CV QC-High,[1]; 1 Day at −20° C.,2.9%
same,Concentration QC-High,[1]; 1 Day at −20° C.,78.3 ng/mL and 79.8 ng/mL and 74.6 ng/mL and 76.6 ng/mL
same,Mean concentration QC-High,[1]; 1 Day at −20° C.,77.3 ng/mL
same,% Bias QC-High,[1]; 2 Days at −20° C.,−3.8%
same,% CV QC-High,[1]; 2 Days at −20° C.,3.9%
same,Concentration QC-High,[1]; 2 Days at −20° C.,74.4 ng/mL and 78.6 ng/mL and 74.5 ng/mL and 80.3 ng/mL
same,Mean concentration QC-High,[1]; 2 Days at −20° C.,77.0 ng/mL
same,"Fresh QCs (Batch 34) Mean at Time Zero, QC-High",[2]; reference for −20° C. Storage,84.5 ng/mL
same,"Fresh QCs (Batch 34) Mean at Time Zero, QC-High",[2]; reference for −80° C. Storage,84.5 ng/mL
same,% Bias QC-High,[2]; −20° C. Storage,1.0%
same,% CV QC-High,[2]; −20° C. Storage,2.5%
same,Difference from Fresh (%) QC-High,[2]; −20° C. Storage,−4.3%
same,Mean concentration QC-High,[2]; −20° C. Storage,80.8 ng/mL
same,Concentration QC-High,[2]; −20° C. Storage,79.1 ng/mL and 83.0 ng/mL and 80.4 ng/mL
same,% Bias QC-High,[2]; −80° C. Storage,1.0%
same,% CV QC-High,[2]; −80° C. Storage,4.7%
same,Difference from Fresh (%) QC-High,[2]; −80° C. Storage,−4.3%
same,Mean concentration QC-High,[2]; −80° C. Storage,80.8 ng/mL
same,Concentration QC-High,[2]; −80° C. Storage,84.4 ng/mL and 81.2 ng/mL and 76.9 ng/mL
